Assay results published in patent publication US10550144B2, “6-aryl-9-glycosylpurines and use thereof” (UNIVERZITA PALACKEHO V OLOMOUCI, priority 2014, dated 2020).
Read-outs that look alike come from different tables or passages of the source.

Test system: skin fibroblasts BJ and keratinocytes HaCaT
Experiment: MTT in vitro cytotoxicity test on skin cells
Format: cell-based, human
Description: MTT assay is a standard test of toxicity based on photometric measurement of the ability of metabolically active cells to reduce MTT (3-(4,5-dimethylthiazol-2-yl)-2,5-diphenyltetrazolium bromide). Using the assay, the effects of 72 hour treatments with several concentrations of the compounds (sixfold dilution, maximal concentration=50 microM) on viability of skin fibroblasts BJ and keratinocytes HaCaT were evaluated. About 5,000 cells were seeded per well of a 96-well plate 24 hours before the treatment. DMSO vehiculum was used as a negative control. After 72 hour treatment, new medium with MTT (Sigma, M2128) was added to a final concentration of 0.5 mg/ml. After 3 hours, medium was removed and resulting formazan in the cells was dissolved in DMSO. The absorbance was measured at 570 nm (640 nm reference wavelength). The IC50 values were calculated from the dose-response curves. 6-Benzylaminopurine riboside and 6-furfurylaminopurine riboside were used as positive controls they were toxic in the MTT test.

Compound | toxicity in the MTT test | IC50 (MTT, 72 hour treatment, maximal concentration 50 microM, BJ and HaCaT, table does not separate the cell lines) [µM] | toxicity in the MTT test (72 hour treatment)
OC[C@H]1OC(n2cnc3c(NCc4ccccc4)ncnc32)[C@H](O)[C@@H]1O (stereo partly drawn) [6-benzylaminopurin9-ribosylpurine] | toxic | ≤ 3 | –
OC[C@H]1OC(n2cnc3c(NCc4ccco4)ncnc32)[C@H](O)[C@@H]1O (stereo partly drawn) [6-furfurylamino-9-ribosylpurine] | – | – | toxic
